“Also recorded” adds a separate entry of the source. Ends that are not written are not given here.
Tests used:
[1] = In vitro immunoproteasome digestion of 27mer peptides, MS/MS analysis; format: in vitro ADME; settings: immunoproteasomes isolated from T2.27mp cells, 3 nmol 27mer, 1 µg immunoproteasome; for metabolised at 0.5 h, 30 µM: 100 µl 20 mM Hepes/KOH pH 7.8, 2 mM Mg acetate, 2 mM DTT, RP-HPLC ESI MS intensity, 30 min, read-out: substrate degraded after 30 min; for metabolised at 2 h, 30 µM: Hepes/KOH pH 7.8, MS intensity, read-out: substrate degraded after 2 h
Procedure: Immunoproteasomes were isolated from T2.27mp cells (that stably express all three immunosubunits) as previously described. Purified proteasomes were analyzed by SDS-PAGE. The yield was calculated at 90–95%. The 27mer peptides encompassing Q9VF/5D or Q9VF/5N were synthesized using standard Fmoc method on an Applied Biosystems 433A automated synthesizer. The peptides were purified by HPLC and analyzed by mass spectrometry. Three nmol of peptides were digested in vitro using 1 µg of proteasomes (for 0.5, 1, 2, 4, 8 and 18 h) in 100 µl of buffer containing 20 mM Hepes/KOH, pH 7.8, 2 mM magnesium acetate and 2 mM dithiothreitol. Reactions were stopped by the addition of trifluoroacetic acid to a final concentration of 0.3%. The digestions were analyzed, by mass spectrometry (RP-HPLC ESI) and the products were identified by MS/MS.

immunoproteasomes (IP) = experiment: Immunoproteasomes isolated from T2.27mp cells, in 20 mM Hepes/KOH, pH 7.8, 2 mM magnesium acetate and 2 mM dithiothreitol; settings: up to 18 h
[2] = tested on: HIVLAI-infected T1-B7 cells / Q9VF/5D-specific CTLs; experiment: Mouse CTL recognition of HIV-infected T1-B7 cells after epoxomicin treatment (IFNγ-ELISpot); format: cell-based
Procedure: Mouse CTL lines were derived from splenocytes of peptide immunized HLA-B*07^mα3 transgenic mice. In brief, these mice express HLA-B*0702 heavy chain with a murine α3 domain and their H-2K^b and H-2D^b class Ia genes have been inactivated. Cytolytic activity of splenocyte cultures was first assessed in a^51Cr release assay. Peptide specific CTL lines were stimulated in vitro (5 µg/mL of peptide) and cultured in RPMI 1640 medium supplemented with 10% FCS, 0.5 µM 2-β-mercaptoethanol (Sigma), 100 IU/mL penicillin and 100 µg/mL streptomycin (Gibco-BRL). Ten days later, 2×10^3, 400 and 80 CTLs in triplicates were stimulated by 10^5 HIV-1-infected T1-B7 cells and IFNγ release was detected by ELISpot assay. Cross-reactivity of Q9VF/5D- and Q9VF/5N-specific CTLs was tested in IFNγ-ELISpot and Cr^51-release assays using T1-B7 peptide-loaded cells. Mouse CTL lines specific for the HLA-B*0702-restricted HIV-1 Nef-derived epitope F10LR (Nef 68[…]77; [22]) were used as controls. When stated, HIV-infected T1-B7 cells were treated with epoxomicin (6 h, 1 µg/ml, Calbiochem). To remove residual MHC-peptide complexes, epoxomycin-exposed cells were treated with a citrate-phosphate buffer (pH 3.3) containing 1% BSA and washed twice, prior co-culture with CTLs for an additional 8 h.

immunoproteasome (IP) = experiment: Immunoproteasomes isolated from T2.27mp cells; 20 mM Hepes/KOH, pH 7.8, 2 mM magnesium acetate, 2 mM dithiothreitol; settings: human, up to 18 h

Molecule	metabolised at 0.5 h, 30 µM [1]	metabolised at 2 h, 30 µM [1]	cleaved bond (immunoproteasomes (IP))	also measured
MGKSSRREGFQPRSNTHVFSIIRRSHP [Q9VF/5N substrate]	24%	96%	–	–
MGKSSRREGFQPRSDTHVFSIIRRSHP	–	–	F10-Q11, major; also recorded: F19-S20, major, 30 min; also recorded: I22-R23, major; also recorded: R24-S25, major; also recorded: S14-D15; also recorded: S4-S5; also recorded: R6-R7; also recorded: R23-R24	–
CC[C@H](C)[C@H](NC(=O)[C@H]([C@@H](C)CC)N(C)C(C)=O)C(=O)N[C@H](C(=O)N[C@@H](CC(C)C)C(=O)[C@@]1(C)CO1)[C@@H](C)O [Epoxomicin, epoxomicin]	–	–	–	effect on activation of Q9VF/5D-specific CTLs by HIVLAI-infected cells ([2]; epoxomicin 1 µg/ml, 6 h at 37°C, citrate-phosphate buffer pH 3.3 wash, 8 h co-culture, IFNγ-ELISpot, representative of three CTL clones): abolished the capacity of HIVLAI-infected cells to activate Q9VF/5D-specific CTLs; effect on MHC-density and presentation of exogenous peptide ([2]; epoxomicin-treated T1-B7 cells, FACS, exogenous peptide 0.1 µg/ml): affected neither MHC-density
MGKSSRREGFQPRSDTHVFSIIRRSHP [Q9VF/5D substrate]	24%	96%	–	–
MGKSSRREGFQPRSNTHVFSIIRRSHP	–	–	F19-S20, 30 min; also recorded: S4-S5; also recorded: F10-Q11, 1 h; also recorded: I22-R23; also recorded: R24-S25; also recorded: N15-T16, major, 30 min	fragment found (immunoproteasome (IP)): Q9VF (Q11-F19), minor

— paper PMC3093368 (PLoS Pathogens, 2011)
